The source of these data is ChEMBL document CHEMBL4665751, “Discovery of Clinical Candidate (5-(3-(4-Chlorophenoxy)prop-1-yn-1-yl)-3-hydroxypicolinoyl)glycine, an Orally Bioavailable Prolyl Hydroxylase Inhibitor for the Treatment of Anemia” (J Med Chem, 2020).

The source made the active and inactive calls. No cut-off for these calls is given here.

The target of one assay is Egl nine homolog 1 (Homo sapiens, UniProt Q9GZT9). Nature of the assay: Inhibition of FITC-HIF1alpha (556 to 574 residues) binding to PHD2 (181 to 426 residues) (unknown origin) by fluorescence polarization assay. (In general: Fluorescence polarisation rises when a labelled molecule tumbles more slowly, as on binding a larger partner.)
Chain of Egl nine homolog 1 (Q9GZT9 whole entry, the tested form may be a part): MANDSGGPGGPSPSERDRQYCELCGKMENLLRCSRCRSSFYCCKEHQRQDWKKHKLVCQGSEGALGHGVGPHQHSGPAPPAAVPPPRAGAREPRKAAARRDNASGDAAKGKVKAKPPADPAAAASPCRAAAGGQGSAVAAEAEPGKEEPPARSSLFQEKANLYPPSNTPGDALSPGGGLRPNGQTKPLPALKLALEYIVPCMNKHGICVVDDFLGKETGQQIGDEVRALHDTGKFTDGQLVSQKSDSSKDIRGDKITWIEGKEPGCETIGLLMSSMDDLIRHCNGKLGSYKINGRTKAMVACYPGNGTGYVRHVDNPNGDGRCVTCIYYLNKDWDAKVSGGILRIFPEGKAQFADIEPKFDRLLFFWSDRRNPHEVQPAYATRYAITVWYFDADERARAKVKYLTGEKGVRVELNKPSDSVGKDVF
For assay [1], the system named is Mus musculus. Nature of the assay: Antianemic activity in cisplatin-induced C57BL/6 mouse anemia model assessed as improvement in anemia at 10 mg/kg, po administered every other day for 1 month. As to conditions: time 1 months, 730 h. Type of assay: functional.
In assay [2] the test system is Mus musculus. Nature of the assay: Antianemic activity in cisplatin-induced C57BL/6 mouse anemia model assessed as improvement in anemia at 25 mg/kg, po administered every other day for 1 month. Type of assay: functional. The note with it: time 1 months, 730 h.
Assay [3] deals with Mus musculus. Nature of the assay: Induction of erythropoiesis in po dosed C57BL/6 mouse assessed as increase in red blood cell count administered thrice for 3 days measured 4 hrs post last dose. Type of assay: functional, organism-based. As to conditions: dose mg/kg 5-50, time 72.0 hrs.
Assay [4] has as its system Mus musculus. Nature of the assay: In vivo inhibition of PHD2 in po dosed C57BL/6 mouse assessed as upregulation of EPO plasma level administered 4 times for 3 days by ELISA. The note with it: dose mg/kg 5-50, time 3.0 day. The class given is functional, organism-based. In general terms: An ELISA detects its analyte on a solid surface through an enzyme-linked reagent.

Assay [5] relates to Mus musculus. Nature of the assay: Antianemic activity in cisplatin-induced C57BL/6 mouse anemia model assessed as increase in haemoglobin level administered orally every other day for 1 month. Type of assay: functional, organism-based. The note with it: dose mg/kg 10-25, time 1.0 months.
In assay [6] the test system is Mus musculus. The assay is described as follows: In vivo inhibition of PHD2 in C57BL/6 mouse assessed as upregulation of EPO plasma level by measuring EPO level at 15 mg/kg, po measured after 4 hrs by ELISA. The class given is functional, organism-based.
Assay [7] is described as follows: In vivo inhibition of PHD2 in C57BL/6 mouse assessed as increase in EPO plasma level by measuring EPO level at 15 mg/kg, iv measured after 4 hrs by ELISA. Type of assay: functional.

On to `COc1ccccc1OCC#Cc1cnc(C(=O)NCC(=O)O)c(O)c1`, for which the IC50 (in general, the point on the concentration scale where inhibition reaches its midpoint) at Egl nine homolog 1 turned out to be 218 nM.

As to `N#Cc1ccc(OCC#Cc2cnc(C(=O)NCC(=O)O)c(O)c2)cc1`, the IC50 on Egl nine homolog 1 came to 263 nM.

As to `Cc1nc(C(=O)NCC(=O)O)c(O)c2ccc(Oc3ccccc3)cc12` [ROXADUSTAT], the results for the Activity in the assay on Mus musculus [1], in the assay on Mus musculus [2] and with Mus musculus [3] were 86.4%, 115.2% and “Dose-dependent effect”, respectively. Further, in the assay on Mus musculus [4], the inhibition result was “Dose-dependent effect”. In the assay with Mus musculus [5], the result was Active. Also, the inhibition result with Mus musculus [6] was “Active”.

The molecule `CN(CC#Cc1cnc(C(=O)NCC(=O)O)c(O)c1)c1ccccc1` yielded a half-inhibitory concentration (IC50) at Egl nine homolog 1 of 454 nM.

On to `O=C(O)CNC(=O)c1ncc(C#CCOc2ccc(-c3ccccc3)cc2)cc1O`, for which the IC50 at Egl nine homolog 1 came out at 825 nM.

As to `COc1ccc(OCC#Cc2cnc(C(=O)NCC(=O)O)c(O)c2)cc1`, the Activity in assay [7] is greater than 1000 pg/mL.

Molecule `O=C(O)CNC(=O)c1ncc(C#CCOc2cccc(F)c2)cc1O` displayed an IC50 on Egl nine homolog 1 of 256 nM.

`O=C(O)CNC(=O)c1ncc(C#CCOc2cccc(Cl)c2)cc1O` gave an IC50 at Egl nine homolog 1 of 587 nM.

As to `O=C(O)CNC(=O)c1ncc(C#CCOc2cccc(C(F)(F)F)c2)cc1O`, the IC50 at Egl nine homolog 1 stood at 877 nM.

As for `COc1cccc(OCC#Cc2cnc(C(=O)NCC(=O)O)c(O)c2)c1`, on Egl nine homolog 1, the IC50 worked out at 428 nM.

On Egl nine homolog 1, `O=C(O)CNC(=O)c1ncc(C#CCOCCc2ccc(Cl)cc2)cc1O` yielded an IC50 of 408 nM.

Take `Cc1cccc(OCC#Cc2cnc(C(=O)NCC(=O)O)c(O)c2)c1`: at Egl nine homolog 1, the concentration for half-maximal inhibition (IC50) came to 125 nM. The Activity in assay [7] was greater than 1000 pg/mL.

Turning to `O=C(O)CNC(=O)c1ncc(C#CCOc2cccc3ccccc23)cc1O`, the IC50 at Egl nine homolog 1 worked out at 346 nM.

As for `O=C(O)CNC(=O)c1ncc(C#CCOc2ccccc2Cl)cc1O`, the Activity in assay [7] is greater than 1000 pg/mL.

With `O=C(O)CNC(=O)c1ncc(C#CCOCc2ccc(Cl)cc2)cc1O`, the IC50 on Egl nine homolog 1 was 84.3 nM.

At Egl nine homolog 1, `O=C(O)CNC(=O)c1ncc(C#CCOc2ccccc2C(F)(F)F)cc1O` registered an IC50 of 1070 nM.
